Experimental data: EP0393575B1, “Neoplasia treatment compositions containing antineoplastic agent and side-effect reducing protective agent” (priority 1989, dated 1990)
Like-named read-outs stand apart in the source and are kept apart here.

Assays:
normal BDF₁ mice [1] = test system: normal BDF₁ mice
Description: (§1) The effect of carbetimer on sub-acute adriamycin toxicity in normal BDF₁ mice was evaluated. Normal BDF₁ mice were treated either with adriamycin alone at 21 mg/kg i.v. or with adriamycin at 21 mg/kg i.v. plus carbetimer 125 mg/kg i.v. given concurrently. […] Data are reported in Table IV in absolute weights of animals and depicted in Figure 4 in terms of percent of original weights of the animals.

MIA C51 cell line = assay: Trial VI: survival of rats inoculated with tumor cells; format: in vivo; details: Adriamycin 10 mg/kg i.v. Day One Only
Description: Rats were inoculated with a million cells of MIA C51 cell line. Thereafter, animals were treated with saline control, carbetimer alone at 1700 mg/kg in days 1-5, or adriamycin at 10 mg/kg i.v., or adriamycin 10 mg/kg i.v. plus carbetimer at 1700 mg/kg i.p. Animals treated with the combination of carbetimer and adriamycin remained alive 40 days after treatment. The combination therapy provided greater tumor remission than carbetimer alone or adriamycin alone, indicating two drugs may act in an additive or synergistic manner to cure tumors in tumor-bearing rats. Data are reported in Table VI and depicted in Figure 6.

normal BDF₁ mice [2] = test system: normal BDF₁ mice; remark: listed apart in the source
Description: The effect of carbetimer on acute adriamycin toxicity in normal BDF₁ mice was evaluated. Normal BDF₁ mice were treated with carbetimer alone at 1700 mg/kg i.p. with adriamycin alone at 21 mg/kg i.v. or the combination of the two drugs, carbetimer being given half an hour before adriamycin. […] Data are reported in Table I and depicted in Figure 1.

normal BDF₁ mice [3] = test system: normal BDF₁ mice; remark: listed apart in the source
Description: The effect of carbetimer on sub-acute adriamycin toxicity in normal BDF₁ mice was evaluated. Normal BDF₁ mice were treated either with adriamycin alone at 21 mg/kg i.v. or with adriamycin at 21 mg/kg i.v. plus carbetimer 500 mg/kg i.v. given concurrently. […]

normal BDF₁ mice [4] = test system: normal BDF₁ mice; remark: listed apart in the source
Description: as §1, with “250” for “125”, “III” for “IV”, “3” for “4”

[5] = Adriamycin alone 21 mg/kg i.v., Day 6
[6] = lethal dose of adriamycin alone, 21 mg/kg i.v.

Compound: COc1cccc2c1C(=O)c1c(O)c3c(c(O)c1C2=O)C[C@@](O)(C(=O)CO)C[C@@H]3O[C@H]1C[C@H](N)[C@H](O)[C@H](C)O1 [Adriamycin, doxorubicin]
- mortality (normal BDF₁ mice [1]; [5]): all dead
- time to death from start of the therapy (normal BDF₁ mice [1]; [6]): ≤ 10 days
- % Rats Alive After Treatment (MIA C51 cell line; Days 0-8): 100%
- % Rats Alive After Treatment (MIA C51 cell line; Days 9-10): 100%
- % Rats Alive After Treatment (MIA C51 cell line; Days 11-26): 100%
- % Rats Alive After Treatment (MIA C51 cell line; Days 27-29): 80%
- % Rats Alive After Treatment (MIA C51 cell line; Days 30-32): 0%
- % Rats Alive After Treatment (MIA C51 cell line; Days 33-40): 0%
- % Rats Alive After Treatment (MIA C51 cell line; Days 41-43): 0%
- mortality (normal BDF₁ mice [2]; Adriamycin 21 mg/kg i.v., 7 days post-treatment): all dead
- time to death from start of the therapy (normal BDF₁ mice [2]; [6]): ≤ 8 days
- mortality (normal BDF₁ mice [3]; [5]): all dead
- time to death from start of the therapy (normal BDF₁ mice [3]; [6]): ≤ 8 days
- mortality (normal BDF₁ mice [4]; Adriamycin alone 21 mg/kb i.v., Day 6): all dead
- time to death from start of the therapy (normal BDF₁ mice [4]; [6]): ≤ 8 days
